Laboratory results taken from US10023652B2, “Method of targeting glycoproteins to treat cancer” (Board of Regents of the University of Nebraska, priority 2013, dated 2018).

System: phosphorylation of Akt (S473)
Experiment: Treatment of Capan-1 Cosmc KO cells with HER2 inhibitor, Akt phosphorylation by immunoblotting
Type: cell-based, human
Conditions: 24 h, FIG. 9B

COCC(=O)NC/C=C/c1ccc2ncnc(Nc3ccc(Oc4ccc(C)nc4)c(C)c3)c2c1 [CP724714]
phosphorylation of Akt: decreases the phosphorylation of Akt in a dose dependent manner
